US12064426B2, “Selective inhibitors of ROCK1 and ROCK2 protein kinases and uses thereof” (GENOSCO Inc., priority 2021, dated 2024)
pIC50: −log10 of the molar value.

Key:
[1] = biological target: T1, Recombinant ROCK1 (amino acids 1-477) (Homo sapiens, UniProt Q13464); test: ROCK inhibition assay, LANCE Ultra TR-FRET kinase assay (ROCK1); assay type: biochemical; conditions: 1 μM ATP, 50 nM ULight-CREBtide substrate
T1 construct: Recombinant ROCK1 (amino acids 1-477); by word order, ROCK1 from Carna Biosciences
Procedure, shortened: (§1)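 LANCE Ultra TR-FRET kinase assay with recombinant ROCK1 (aa 1-477) or ROCK2 (aa 5-554), 50 nM ULight-CREBtide and ATP at 1 μM (ROCK1) or 4 μM (ROCK2) in HEPES pH 7.5 with MgCl2, 1 h at room temperature. EDTA stop with Eu anti-phospho-CREB Ser133 antibody; 665/615 nm read gives IC50.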

[2] = biological target: T2, Recombinant ROCK2 (amino acids 5-554) (Homo sapiens, UniProt O75116); test: ROCK inhibition assay, LANCE Ultra TR-FRET kinase assay (ROCK2); assay type: biochemical; conditions: 4 μM ATP, 50 nM ULight-CREBtide substrate
T2 construct: ROCK2 (amino acids 5-554); by word order, ROCK2 from SignalChem
Procedure, shortened: as §1

T1 sequence (Q13464 1-477): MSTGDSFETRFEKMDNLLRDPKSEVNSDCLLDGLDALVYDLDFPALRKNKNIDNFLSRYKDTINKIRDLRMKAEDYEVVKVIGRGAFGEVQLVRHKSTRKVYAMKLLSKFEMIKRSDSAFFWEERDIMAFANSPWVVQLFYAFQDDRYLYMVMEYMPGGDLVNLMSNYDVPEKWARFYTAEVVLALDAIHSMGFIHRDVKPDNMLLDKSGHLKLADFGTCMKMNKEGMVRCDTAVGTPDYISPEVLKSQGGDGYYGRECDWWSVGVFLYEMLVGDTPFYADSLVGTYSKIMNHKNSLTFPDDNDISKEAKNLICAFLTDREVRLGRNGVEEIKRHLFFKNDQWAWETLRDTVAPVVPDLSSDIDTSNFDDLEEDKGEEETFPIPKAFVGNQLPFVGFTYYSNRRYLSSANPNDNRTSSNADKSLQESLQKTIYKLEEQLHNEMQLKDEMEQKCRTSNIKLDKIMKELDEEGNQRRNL
T2 sequence (O75116 5-554): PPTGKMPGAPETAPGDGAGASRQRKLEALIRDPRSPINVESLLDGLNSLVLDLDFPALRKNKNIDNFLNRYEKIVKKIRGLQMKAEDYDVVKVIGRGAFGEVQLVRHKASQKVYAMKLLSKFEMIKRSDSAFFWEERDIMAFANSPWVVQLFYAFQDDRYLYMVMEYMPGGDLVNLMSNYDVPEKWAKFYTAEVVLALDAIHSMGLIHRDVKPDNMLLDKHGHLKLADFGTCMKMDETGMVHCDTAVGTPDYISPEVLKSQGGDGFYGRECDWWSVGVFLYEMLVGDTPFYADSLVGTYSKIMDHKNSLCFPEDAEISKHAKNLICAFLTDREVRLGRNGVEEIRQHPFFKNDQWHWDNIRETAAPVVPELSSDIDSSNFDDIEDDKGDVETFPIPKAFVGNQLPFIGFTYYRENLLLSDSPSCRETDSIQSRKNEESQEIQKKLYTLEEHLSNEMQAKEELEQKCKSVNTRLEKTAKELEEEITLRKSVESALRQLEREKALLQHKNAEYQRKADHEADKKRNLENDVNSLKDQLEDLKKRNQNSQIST

| SMILES | pIC50 [1] | pIC50 [2] |
| --- | --- | --- |
| NS(=O)(=O)c1ccc(NC(=O)c2cc(F)cc(Cn3ccc4cc(-c5c[nH]nc5C(F)(F)F)ccc4c3=O)c2)cc1 [Compound 127] | 6.30 to 7.00 | 7.00 to 8.00 |
| O=C(NC1CCOCC1)c1cc(F)cc(Cn2ccc3cc(-c4c[nH]nc4C(F)(F)F)ccc3c2=O)c1 [Compound 130] | 7.00 to 7.96 | 7.00 to 8.00 |
| O=C(NC1CCNCC1)c1cc(F)cc(Cn2ccc3cc(-c4c[nH]nc4C(F)(F)F)ccc3c2=O)c1 [Compound 131] | > 8.00 | > 8.00 |
| CN1CCC(NC(=O)c2cc(F)cc(Cn3ccc4cc(-c5c[nH]nc5C(F)(F)F)ccc4c3=O)c2)CC1 [Compound 132] | > 8.00 | > 8.00 |
| O=C(NC1CC1)c1cc(F)cc(Cn2ccc3cc(-c4c[nH]nc4C(F)(F)F)ccc3c2=O)c1 [Compound 133] | 6.30 to 7.00 | 7.00 to 8.00 |
| CN1CCC(CNC(=O)c2cc(F)cc(Cn3ccc4cc(-c5c[nH]nc5C(F)(F)F)ccc4c3=O)c2)CC1 [Compound 134] | 7.00 to 7.96 | > 8.00 |
| O=C(NCC1CCOCC1)c1cc(F)cc(Cn2ccc3cc(-c4c[nH]nc4C(F)(F)F)ccc3c2=O)c1 [Compound 135] | 6.30 to 7.00 | 7.00 to 8.00 |
| Cc1nocc1-c1ccc2c(=O)n(Cc3cc(F)cc(C(=O)N[C@H]4CC[C@H](O)CC4)c3)ccc2c1 [Compound 139] | 6.30 to 7.00 | 6.30 to 7.00 |
| Cc1nocc1-c1ccc2c(=O)n(Cc3cc(F)cc(C(=O)N[C@H]4CC[C@@H](O)CC4)c3)ccc2c1 [Compound 140] | 6.30 to 7.00 | 6.30 to 7.00 |
| CO[C@H]1CC[C@H](NC(=O)c2cc(F)cc(Cn3ccc4cc(-c5conc5C)ccc4c3=O)c2)CC1 [Compound 141] | < 6.30 | 6.30 to 7.00 |
| CO[C@H]1CC[C@@H](NC(=O)c2cc(F)cc(Cn3ccc4cc(-c5conc5C)ccc4c3=O)c2)CC1 [Compound 142] | < 6.30 | 6.30 to 7.00 |
| Cc1nocc1-c1ccc2c(=O)n(Cc3cc(F)cc(C(=O)NC4CCOCC4)c3)ccc2c1 [Compound 148] | 6.30 to 7.00 | 7.00 to 8.00 |
| Cc1nocc1-c1ccc2c(=O)n(Cc3cc(F)cc(C(=O)NCC4CCN(C5CC5)CC4)c3)ccc2c1 [Compound 151] | 7.00 to 7.96 | > 8.00 |
| Cc1nocc1-c1ccc2c(=O)n(Cc3cc(F)cc(C(=O)NCC4CCN(CC(F)(F)F)CC4)c3)ccc2c1 [Compound 153] | 6.30 to 7.00 | > 8.00 |
| Cc1nocc1-c1ccc2c(=O)n(Cc3cc(F)cc(C(=O)NCC4CCN(C5COC5)CC4)c3)ccc2c1 [Compound 154] | 6.30 to 7.00 | > 8.00 |
| Cc1nocc1-c1ccc2c(=O)n(Cc3cc(F)cc(C(=O)Nc4nc5c(s4)CCNC5)c3)ccc2c1 [Compound 157] | 7.00 to 7.96 | > 8.00 |
| Cc1nocc1-c1ccc2c(=O)n(Cc3cc(F)cc(C(=O)Nc4nc5c(s4)CCN(C)C5)c3)ccc2c1 [Compound 158] | 7.00 to 7.96 | > 8.00 |
| Cc1nocc1-c1ccc2c(=O)n(Cc3cc(F)cc(C(=O)Nc4nc5c(s4)CCN(C(C)C)C5)c3)ccc2c1 [Compound 159] | 7.00 to 7.96 | > 8.00 |
| Cc1nocc1-c1ccc2c(=O)n(Cc3cc(F)cc(C(=O)Nc4ccc5c(c4)CNCC5)c3)ccc2c1 [Compound 160] | 7.00 to 7.96 | > 8.00 |
| Cc1nocc1-c1ccc2c(=O)n(Cc3cc(F)cc(C(=O)Nc4ccc5c(c4)CN(C4CC4)CC5)c3)ccc2c1 [Compound 161] | 7.00 to 7.96 | > 8.00 |
| Cc1nocc1-c1ccc2c(=O)n(Cc3cc(F)cc(C(=O)Nc4ccc5c(c4)CCNC5)c3)ccc2c1 [Compound 162] | > 8.00 | > 8.00 |

Further lines, results first:

| pIC50 [1] | pIC50 [2] | SMILES |
| --- | --- | --- |
| 7.00 to 7.96 | > 8.00 | CN(C)CCNC(=O)c1cccc(Cn2ccc3cc(-c4ccnn4C)ccc3c2=O)c1 [Compound 119] |
| 6.30 to 7.00 | 6.30 to 7.00 | COCCNC(=O)c1cccc(Cn2ccc3cc(-c4ccnn4C)ccc3c2=O)c1 [Compound 120] |
| 7.00 to 7.96 | > 8.00 | CN1CCc2sc(NC(=O)c3cccc(Cn4ccc5cc(-c6ccnn6C)ccc5c4=O)c3)nc2C1 [Compound 121] |
| > 8.00 | > 8.00 | Cn1nccc1-c1ccc2c(=O)n(Cc3cccc(C(=O)Nc4nc5c(s4)CCNC5)c3)ccc2c1 [Compound 122] |
| > 8.00 | > 8.00 | CN1CCc2cc(NC(=O)c3cccc(Cn4ccc5cc(-c6ccnn6C)ccc5c4=O)c3)ccc2C1 [Compound 124] |
| > 8.00 | > 8.00 | Cn1nccc1-c1ccc2c(=O)n(Cc3cccc(C(=O)Nc4ccc5c(c4)CNCC5)c3)ccc2c1 [Compound 125] |
| 7.00 to 7.96 | > 8.00 | Cn1nccc1-c1ccc2c(=O)n(Cc3cccc(C(=O)Nc4ccc5c(c4)CN(C4CC4)CC5)c3)ccc2c1 [Compound 126] |
| 7.00 to 7.96 | > 8.00 | Cn1ccc(NC(=O)c2cc(F)cc(Cn3ccc4cc(-c5cn[nH]c5C(F)(F)F)ccc4c3=O)c2)n1 [Compound 128] |
| 6.30 to 7.00 | > 8.00 | O=C(NCc1ccc(F)nc1)c1cc(F)cc(Cn2ccc3cc(-c4c[nH]nc4C(F)(F)F)ccc3c2=O)c1 [Compound 129] |
| 7.00 to 7.96 | > 8.00 | O=C(NCC1COC1)c1cc(F)cc(Cn2ccc3cc(-c4c[nH]nc4C(F)(F)F)ccc3c2=O)c1 [Compound 136] |
| 6.30 to 7.00 | 7.00 to 8.00 | Cc1nocc1-c1ccc2c(=O)n(Cc3cc(F)cc(C(=O)N[C@H]4C[C@@H](O)C4)c3)ccc2c1 [Compound 137] |
| 6.30 to 7.00 | 7.00 to 8.00 | Cc1nocc1-c1ccc2c(=O)n(Cc3cc(F)cc(C(=O)N[C@H]4C[C@H](O)C4)c3)ccc2c1 [Compound 138] |
| 6.30 to 7.00 | 7.00 to 8.00 | Cc1nocc1-c1ccc2c(=O)n(Cc3cc(F)cc(C(=O)NCCN4CCOCC4)c3)ccc2c1 [Compound 143] |
| 7.00 to 7.96 | > 8.00 | Cc1nocc1-c1ccc2c(=O)n(Cc3cc(F)cc(C(=O)NCCN4CCN(C)CC4)c3)ccc2c1 [Compound 144] |
| 6.30 to 7.00 | 7.00 to 8.00 | Cc1nocc1-c1ccc2c(=O)n(Cc3cc(F)cc(C(=O)NCC4COC4)c3)ccc2c1 [Compound 145] |
| 7.00 to 7.96 | > 8.00 | Cc1nocc1-c1ccc2c(=O)n(Cc3cc(F)cc(C(=O)NCc4ccc(F)nc4)c3)ccc2c1 [Compound 147] |
| 7.00 to 7.96 | > 8.00 | Cc1nocc1-c1ccc2c(=O)n(Cc3cc(F)cc(C(=O)NCC4CCN(C)CC4)c3)ccc2c1 [Compound 149] |
| 7.00 to 7.96 | > 8.00 | Cc1nocc1-c1ccc2c(=O)n(Cc3cc(F)cc(C(=O)NCC4CCNCC4)c3)ccc2c1 [Compound 150] |
| 6.30 to 7.00 | 7.00 to 8.00 | Cc1nocc1-c1ccc2c(=O)n(Cc3cc(F)cc(C(=O)NCC4CCN(C(C)C)CC4)c3)ccc2c1 [Compound 152] |
| 7.00 to 7.96 | > 8.00 | Cc1nocc1-c1ccc2c(=O)n(Cc3cc(F)cc(C(=O)Nc4ccn(C)n4)c3)ccc2c1 [Compound 156] |
| > 8.00 | > 8.00 | Cc1nocc1-c1ccc2c(=O)n(Cc3cc(F)cc(C(=O)Nc4ccc5c(c4)CCN(C)C5)c3)ccc2c1 [Compound 163] |
| 6.30 to 7.00 | 7.00 to 8.00 | Cn1nccc1-c1ccc2c(=O)n(Cc3cc(F)cc(C(=O)N[C@H]4CC[C@H](O)CC4)c3)ccc2c1 [Compound 164] |
| 6.30 to 7.00 | 7.00 to 8.00 | Cn1nccc1-c1ccc2c(=O)n(Cc3cc(F)cc(C(=O)NC4CCOCC4)c3)ccc2c1 [Compound 166] |
